Assay results as given in BindingDB's records for doi:10.1016/j.bmcl.2015.12.003 (University of Auckland, 2016).

assay: Inhibition of recombinant perforin (unknown origin) mediated lysis of human Jurkat cells pre-incubated for 30 mins with perforin followed by incubation with Jurkat cells at 37 degC for 4 hrs assessed as 51Cr release by gamma counting analysis

IC50 [µM]	Structure (SMILES)
> 20	O=C1OCc2cc(-c3ccc(-c4ccccc4)s3)ccc21
> 20	Cc1ccccc1-c1ccc(-c2ccc3c(c2)COC3=O)s1
> 20	Cc1cccc(-c2ccc(-c3ccc4c(c3)COC4=O)s2)c1
> 20	Cc1ccc(-c2ccc(-c3ccc4c(c3)COC4=O)s2)cc1
> 20	O=C1OCc2cc(-c3ccc(-c4ccccc4Cl)s3)ccc21
> 20	O=C1OCc2cc(-c3ccc(-c4cccc(Cl)c4)s3)ccc21
> 20	O=C1OCc2cc(-c3ccc(-c4ccc(Cl)cc4)s3)ccc21
> 20	COc1ccccc1-c1ccc(-c2ccc3c(c2)COC3=O)s1
> 20	COc1cccc(-c2ccc(-c3ccc4c(c3)COC4=O)s2)c1
9.36	COc1ccc(-c2ccc(-c3ccc4c(c3)COC4=O)s2)cc1
14	Nc1cccc(-c2ccc(-c3ccc4c(c3)COC4=O)s2)c1
11.8	Nc1ccc(-c2ccc(-c3ccc4c(c3)COC4=O)s2)cc1
5.89	O=C1OCc2cc(-c3ccc(-c4cccc(O)c4)s3)ccc21
> 20	O=C1OCc2cc(-c3ccc(-c4ccc(O)cc4)s3)ccc21
20	N#Cc1cccc(-c2ccc(-c3ccc4c(c3)COC4=O)s2)c1
6.87	N#Cc1ccc(-c2ccc(-c3ccc4c(c3)COC4=O)s2)cc1
2.97	NC(=O)c1cccc(-c2ccc(-c3ccc4c(c3)COC4=O)s2)c1
0.18	NC(=O)c1ccc(-c2ccc(-c3ccc4c(c3)COC4=O)s2)cc1
6.04	NC(=O)c1ccc(-c2ccc(-c3ccc4c(c3)CNC4=O)s2)cc1
> 20	CN1Cc2cc(-c3ccc(-c4ccc(C(N)=O)cc4)s3)ccc2C1=O
10.7	CNC(=O)c1ccc(-c2ccc(-c3ccc4c(c3)COC4=O)s2)cc1
> 20	CN(C)C(=O)c1ccc(-c2ccc(-c3ccc4c(c3)COC4=O)s2)cc1
> 20	CN1CCN(C(=O)c2ccc(-c3ccc(-c4ccc5c(c4)COC5=O)s3)cc2)CC1

IC50 [µM]	Structure (SMILES)
> 20	CN(C)CCCNC(=O)c1ccc(-c2ccc(-c3ccc4c(c3)COC4=O)s2)cc1
11	CCOC(=O)c1ccc(-c2ccc(-c3ccc4c(c3)COC4=O)s2)cc1
> 20	CCOC(=O)c1ccc(-c2ccc(-c3ccc4c(c3)COC4=O)s2)cc1O
5.84	Nc1cc(-c2ccc(-c3ccc4c(c3)COC4=O)s2)ccc1C(=O)O
0.67	NC(=O)c1ccc(-c2ccc(-c3ccc4c(c3)COC4=O)s2)cc1O
12.8	O=C(NCCN1CCOCC1)c1ccc(-c2ccc(-c3ccc4c(c3)COC4=O)s2)cc1O
> 20	CN(C)CCNC(=O)c1ccc(-c2ccc(-c3ccc4c(c3)COC4=O)s2)cc1O
3.31	O=C(NCCO)c1ccc(-c2ccc(-c3ccc4c(c3)COC4=O)s2)cc1O
> 20	CC(O)CNC(=O)c1ccc(-c2ccc(-c3ccc4c(c3)COC4=O)s2)cc1O (stereo unspecified)
2.65	NC(=O)CNC(=O)c1ccc(-c2ccc(-c3ccc4c(c3)COC4=O)s2)cc1O
7.12	NC(=O)CCNC(=O)c1ccc(-c2ccc(-c3ccc4c(c3)COC4=O)s2)cc1O
1.2	NC(=O)c1ccc(-c2ccc(-c3ccc4c(c3)COC4=O)s2)cc1N
14.7	Nc1cc(-c2ccc(-c3ccc4c(c3)COC4=O)s2)ccc1C(=O)NCCN1CCOCC1
> 20	CN(C)CCNC(=O)c1ccc(-c2ccc(-c3ccc4c(c3)COC4=O)s2)cc1N
> 20	CSc1ccc(-c2ccc(-c3ccc4c(c3)COC4=O)s2)cc1
0.9	O=C1OCc2cc(-c3ccc(-c4ccc(CO)cc4)s3)ccc21
> 20	CS(=O)(=O)c1ccc(-c2ccc(-c3ccc4c(c3)COC4=O)s2)cc1
4.85	NS(=O)(=O)c1cccc(-c2ccc(-c3ccc4c(c3)COC4=O)s2)c1
6.09	CC(C)(C)NS(=O)(=O)c1ccc(-c2ccc(-c3ccc4c(c3)COC4=O)s2)cc1
1.09	CS(=O)(=O)Nc1ccc(-c2ccc(-c3ccc4c(c3)COC4=O)s2)cc1
0.92	NC(=O)c1ccc(-c2ccc(-c3ccc4c(c3)COC4=O)s2)cn1
4.53	O=C1OCc2cc(-c3ccc(-c4ccncc4)s3)ccc21
6.24	O=C1OCc2cc(-c3ccc(-c4ccc5c(c4)COC5=O)s3)ccc21
